A value given as a limit tells only on which side of the number the result lay.

The subject of one assay is Huh7 cells. Description: Cell proliferation, Huh7 (CellTiter Glo). The assay is classed as cell-based. To be noted: Homo sapiens, Huh-7; Huh7; 120 hr; read-out: Cell Proliferation GI50 (nM) HUH. The procedure: The growth inhibition (GI50) values were determined by Graph Pad Prism.
With `C=CC(=O)N[C@H]1CCCC[C@H]1Nc1ncc2cc(-c3c(Cl)c(OC)cc(OC)c3Cl)c(=O)n(C)c2n1` [I-223], the GI50 was 101 to 500 nM.
The same measure, in the same setting: next, `C=CC(=O)NC1COCC1Nc1ncc2c(n1)N(CC)C(=O)N(c1c(Cl)c(OC)cc(OC)c1Cl)C2` (stereo not shown) [I-217]: below 100 nM; `C=CC(=O)N[C@H]1COCC[C@H]1Nc1ncc2c(n1)N(C)C(=O)N(c1c(Cl)c(OC)cc(OC)c1Cl)C2` [I-140]: 501 to 999 nM.
On the same count and under the same terms, to `C=CC(=O)Nc1ccccc1Nc1ncc2c(n1)N(C1COC1)C(=O)N(c1cc(OC)cc(OC)c1)C2` [I-88] belongs above 1000 nM; to `C=CC(=O)Nc1ccccc1Nc1ncc2c(n1)N(Cc1cscn1)C(=O)N(c1cc(OC)cc(OC)c1)C2` [I-64], above 1000 nM; to `C=CC(=O)Nc1cc(C)ccc1Nc1ncc2c(n1)N(C)C(=O)N(c1cc(OC)cc(OC)c1)C2` [I-41], above 1000 nM.
Still for that read-out and setting: next, `COc1cc(OC)c(Cl)c(N2Cc3cnc(Nc4ccccc4)nc3N(C)C2=O)c1Cl` [I-238]: below 100 nM; `C=CC(=O)NC1COCC1Nc1ncc2c(n1)N(Cc1ccn(C)n1)C(=O)N(c1c(Cl)c(OC)cc(OC)c1Cl)C2` (stereo not shown) [I-215]: 101 to 500 nM.
As to `C=CC(=O)NC1COCC1Nc1ncc2c(n1)N(Cc1cscn1)C(=O)N(c1c(Cl)c(OC)cc(OC)c1Cl)C2` (stereo not shown) [I-210], the GI50 was in the range of 101 to 500 nM.
On to `C=CC(=O)NC1CCCCC1Nc1ncc2c(n1)N(Cc1ccn(C)c(=O)c1)C(=O)N(c1c(Cl)c(OC)cc(OC)c1Cl)C2` (stereo not shown) [I-132], for which the GI50 was above 1000 nM.
Same read-out and setting: to `C=CC(=O)Nc1ccc(C(F)(F)F)cc1Nc1ncc2c(n1)N(C)C(=O)N(c1cc(OC)cc(OC)c1)C2` [I-50] belongs above 1000 nM; to `C=CC(=O)Nc1cc(C(F)(F)F)ccc1Nc1ncc2c(n1)N(C)C(=O)N(c1cc(OC)cc(OC)c1)C2` [I-42], above 1000 nM.
Still for that read-out and setting: to `C=CC(=O)Nc1nn(C)cc1Nc1ncc2c(n1)N(C)C(=O)N(c1c(Cl)c(OC)cc(OC)c1Cl)C2` [I-117] belongs 101 to 500 nM; to `C=CC(=O)N[C@H]1COC[C@H]1Nc1ncc2c(n1)N(C)C(=O)N(c1c(Cl)c(OC)cc(OC)c1Cl)C2` [I-186], below 100 nM.
The same measure, in the same setting: next, `C=CC(=O)Nc1cc(N2CCN(C(=O)CCCC(=O)NCCCOCCOCCOCCCNC(=O)CCCC[C@@H]3SC[C@@H]4NC(=O)N[C@@H]43)CC2)ccc1Nc1ncc2c(n1)N(C)C(=O)N(c1c(Cl)c(OC)cc(OC)c1Cl)C2` [I-127]: above 1000 nM; `C=CC(=O)NC1COCC1Nc1ncc2c(n1)N(C)C(=O)N(c1c(F)c(OC)cc(OC)c1Cl)C2` (stereo not shown) [I-206]: below 100 nM.
`C=CC(=O)NC1COCC1Nc1ncc2c(n1)N(C)C(=O)N(c1c(F)c(OC)cc(OC)c1F)C2` (stereo not shown) [I-198]: the GI50 fell in the range of 101 to 500 nM.
Same read-out and setting: next, `C=CC(=O)Nc1cc(-c2nnnn2C)ccc1Nc1ncc2c(n1)N(C)C(=O)N(c1c(Cl)c(OC)cc(OC)c1Cl)C2` [I-153]: 101 to 500 nM; `C=CC(=O)Nc1cc(-c2nnn(C)n2)ccc1Nc1ncc2c(n1)N(C)C(=O)N(c1cc(OC)cc(OC)c1)C2` [I-146]: above 1000 nM; `C=CC(=O)NC1CCCCC1Nc1ncc2c(n1)N(CCF)C(=O)N(c1c(Cl)c(OC)cc(OC)c1Cl)C2` (racemic) [I-106]: above 1000 nM.
For `C=CC(=O)Nc1ccccc1Nc1ncc2c(n1)N(C1CCCN(C(=O)OC(C)(C)C)C1)C(=O)N(c1cc(OC)cc(OC)c1)C2` (stereo not shown) [I-36], the GI50 is above 1000 nM.
Still for that read-out and setting: next, `C=CC(=O)N[C@@H]1COC[C@@H]1Nc1ncc2cc(-c3c(Cl)c(OC)cc(OC)c3Cl)c(=O)n(C)c2n1` [I-240]: above 1000 nM; `C=CC(=O)NC1CCCCC1Nc1ncc2c(n1)N(Cc1csc(C)n1)C(=O)N(c1c(Cl)c(OC)cc(OC)c1Cl)C2` (stereo not shown) [I-137]: 501 to 999 nM.
For the compound `C=CC(=O)NC1COCC1Nc1ncc2c(n1)N(CC1CC1)C(=O)N(c1c(Cl)c(OC)cc(OC)c1Cl)C2` (stereo not shown) [I-212], the GI50 was below 100 nM.
Same read-out and setting: to `C=CC(=O)Nc1ccccc1Nc1ncc2c(n1)N(CC(O)CO)C(=O)N(c1cc(OC)cc(OC)c1)C2` (stereo not shown) [I-33] belongs above 1000 nM; to `C=CC(=O)Nc1ccccc1Nc1ncc2c(n1)N(C1CCCNC1)C(=O)N(c1cc(OC)cc(OC)c1)C2` (stereo not shown) [I-43], 101 to 500 nM; to `C=CC(=O)NC1CN(C)CC1Nc1ncc2c(n1)N(C)C(=O)N(c1c(Cl)c(OC)cc(OC)c1Cl)C2` (racemic) [I-138], above 1000 nM.
Same read-out and setting: next, `C=CC(=O)Nc1ccccc1Nc1ncc2c(n1)N(CCF)C(=O)N(c1cc(OC)cc(OC)c1)C2` [I-102]: above 1000 nM; `C=CC(=O)NC1CN(C2CCN(C)CC2)CC1Nc1ncc2c(n1)N(C)C(=O)N(c1c(Cl)c(OC)cc(OC)c1Cl)C2` (racemic) [I-154]: above 1000 nM.
Still for that read-out and setting: to `C=CC(=O)NC1COCC1Nc1ncc2c(n1)N(Cc1cc[nH]n1)C(=O)N(c1c(Cl)c(OC)cc(OC)c1Cl)C2` (stereo not shown) [I-216] belongs 101 to 500 nM; to `C=CC(=O)Nc1cc(OC)ccc1Nc1ncc2cc(-c3c(Cl)c(OC)cc(OC)c3Cl)c(=O)n(C)c2n1` [I-242], below 100 nM; to `C=CC(=O)NC1CCCCC1Nc1ncc2c(n1)N(CC(F)F)C(=O)N(c1c(F)c(OC)cc(OC)c1F)C2` (stereo not shown) [I-115], above 1000 nM.
For `C=CC(=O)NC1CN(C(C)=O)CC1Nc1ncc2c(n1)N(C)C(=O)N(c1c(Cl)c(OC)cc(OC)c1Cl)C2` (racemic) [I-139], the GI50 fell in the range of 501 to 999 nM.
Consider `C=CC(=O)N[C@H]1COC[C@H]1Nc1ncc2cc(-c3c(Cl)c(OC)cc(OC)c3Cl)c(=O)n(C)c2n1` [I-241], for which the GI50 was below 100 nM.
Still for that read-out and setting: next, `C=CC(=O)N[C@H]1CCCC[C@H]1Nc1ncc2c(n1)N(C)C(=O)N(c1c(F)c(OC)cc(OC)c1Br)C2` [I-228]: 101 to 500 nM.
Same read-out and setting: to `C=CC(=O)Nc1ccccc1Nc1ncc2c(n1)NC(=O)N(c1cc(OC)cc(OC)c1)C2` [I-125] belongs above 1000 nM; to `C=CC(=O)NC1CN(c2ccncn2)CC1Nc1ncc2c(n1)N(C)C(=O)N(c1c(Cl)c(OC)cc(OC)c1Cl)C2` (stereo not shown) [I-201], 501 to 999 nM; to `C=CC(=O)NC1COCC1Nc1ncc2c(n1)N(Cc1cnn(C)c1)C(=O)N(c1c(Cl)c(OC)cc(OC)c1Cl)C2` (stereo not shown) [I-213], below 100 nM.
Same read-out and setting: to `C=CC(=O)N[C@@H]1COC[C@@H]1Nc1ncc2c(n1)N(C)C(=O)N(c1c(Cl)c(OC)cc(OC)c1Cl)C2` [I-185] belongs above 1000 nM; to `C=CC(=O)Nc1cc(C(=O)NC2CCN(C)CC2)ccc1Nc1ncc2c(n1)N(C)C(=O)N(c1cc(OC)cc(OC)c1)C2` [I-151], above 1000 nM.
Consider `C=CC(=O)NC1COCC1Nc1ncc2cc(-c3c(Cl)c(OC)cc(OC)c3Cl)c(=O)n(C)c2n1` (stereo not shown) [I-211], for which the GI50 was below 100 nM.

In another assay the test system is MDA-MB-453 cells. Briefly: Cell proliferation, MDA-MB-453 (CellTiter Glo). The assay is classed as cell-based. To be noted: Homo sapiens; MDA-MB-453; 96 hr; read-out: Cell Proliferation GI50 (nM) MDA. The method, then: For both MDA-MB-453 and Huh7 cells the starting density was 5000 cells per well. The cells were allowed to settle down for 4 hr and were then treated with 5, 1.25, 0.31, 0.078, 0.020 or 0.005 μM of test compound for: 96 hr for MDA-MB-453 and 120 hr for Huh7 cells. Cell viability was determined by CellTiter Glo (Promega, Madison, Wis.) and the results were converted to cell numbers using a standard curve. The growth inhibition (GI50) values were determined by Graph Pad Prism.
The results of these experiments show the ability of compounds to inhibit cell growth in FGFR dependant cell lines and are depicted in Table 8, in the columns titled “Cell Proliferation GI50 (nM)”. MDA-MB-453 cell results fall under the heading “MDA” and Huh7 cell results fall under the heading “Huh.”
In general terms: In ATP-based viability assays light output follows the ATP content of the culture.
As to `C=CC(=O)N[C@H]1CCCC[C@H]1Nc1ncc2c(n1)N(Cc1nccs1)C(=O)N(c1c(Cl)c(OC)cc(OC)c1Cl)C2` [I-92], the GI50 fell in the range of 101 to 500 nM.
The same measure, in the same setting: next, `C=CC(=O)Nc1ccccc1Nc1ncc2c(n1)N(C1COC1)C(=O)N(c1cc(OC)cc(OC)c1)C2` [I-88]: 501 to 999 nM; `C=CC(=O)Nc1ccccc1Nc1ncc2c(n1)N(Cc1cscn1)C(=O)N(c1cc(OC)cc(OC)c1)C2` [I-64]: 101 to 500 nM; `C=CS(=O)(=O)Nc1ccccc1Nc1ncc2c(n1)N(C)C(=O)N(c1cc(OC)cc(OC)c1)C2` [I-67]: 501 to 999 nM.
Same read-out and setting: next, `C=CC(=O)Nc1ccccc1Nc1ncc2c(n1)N(C1CC1)C(=O)N(c1cc(OC)cc(OC)c1)C2` [I-34]: 501 to 999 nM; `C=CC(=O)N[C@H]1CCCC[C@H]1Nc1ncc2c(n1)N(Cc1ccccc1)C(=O)N(c1c(Cl)c(OC)cc(OC)c1Cl)C2` [I-82]: below 100 nM.
With `C=CC(=O)Nc1ccccc1Nc1ncc2c(n1)N(Cc1ccnc(N)c1)C(=O)N(c1c(Cl)c(OC)cc(OC)c1Cl)C2` [I-135], the GI50 was below 100 nM.
Same read-out and setting: next, `C=CCN1C(=O)N(c2cc(OC)cc(OC)c2)Cc2cnc(Nc3ccccc3NC(=O)C=C)nc21` [I-32]: 501 to 999 nM; `C=CC(=O)Nc1ccccc1Nc1ncc2c(n1)N(Cc1ccn(C)n1)C(=O)N(c1c(Cl)c(OC)cc(OC)c1Cl)C2` [I-136]: below 100 nM; `C=CC(=O)Nc1ccccc1Nc1ncc2c(n1)N(Cc1cccc(C#N)c1)C(=O)N(c1cc(OC)cc(OC)c1)C2` [I-90]: 101 to 500 nM.
Still for that read-out and setting: to `C=CC(=O)Nc1ccccc1Nc1ncc2c(n1)N(Cc1cscn1)C(=O)N(c1c(Cl)c(OC)cc(OC)c1Cl)C2` [I-86] belongs below 100 nM; to `C=CC(=O)Nc1cc(-c2cnn(C)c2)ccc1Nc1ncc2c(n1)N(C)C(=O)N(c1cc(OC)cc(OC)c1)C2` [I-77], 101 to 500 nM; to `C=CC(=O)Nc1ccccc1Nc1ncc2c(n1)N(Cc1ccc(Cl)c(OC)c1)C(=O)N(c1c(Cl)c(OC)cc(OC)c1Cl)C2` [I-24], below 100 nM.
Still for that read-out and setting: next, `C=CC(=O)Nc1ccccc1Nc1ncc2c(n1)N(CC1CC1)C(=O)N(c1cc(OC)cc(OC)c1F)C2` [I-109]: below 100 nM; `C=CC(=O)Nc1ccccc1Nc1ncc2c(n1)N(C1CC1)C(=O)N(c1c(Cl)c(OC)cc(OC)c1Cl)C2` [I-23]: below 100 nM.
Take `C=CC(=O)Nc1ccc(-c2nccs2)cc1Nc1ncc2c(n1)N(C)C(=O)N(c1cc(OC)cc(OC)c1)C2` [I-78]: the GI50 fell in the range of 101 to 500 nM.
Consider `C=CC(=O)Nc1ccccc1Nc1ncc2c(n1)N(Cc1nccs1)C(=O)N(c1c(Cl)c(OC)cc(OC)c1Cl)C2` [I-91], for which the GI50 was below 100 nM.
Regarding `C=CC(=O)Nc1cc(N2CCCCC2)ccc1Nc1ncc2c(n1)N(C)C(=O)N(c1cc(OC)cc(OC)c1)C2` [I-31], the GI50 lay in the range of 101 to 500 nM.
Still for that read-out and setting: next, `C=CC(=O)Nc1ccccc1Nc1ncc2c(n1)N(C)C(=O)N(c1cc(OC)cc(OC)c1F)C2` [I-108]: 101 to 500 nM; `C=CC(=O)Nc1ccccc1Nc1ncc2c(n1)N(C)C(=O)N(c1cc(OC)cc(OC)c1Cl)C2` [I-75]: 101 to 500 nM.

For the origin of these results see patent US10189794B2, “Heteroaryl compounds and uses thereof” (Celgene CAR LLC, priority 2013, dated 2019).
